Experimental data from BigSolDB 2.1.

CC(=NC#N)N(C)Cc1ccc(Cl)nc1
solubility (mole fraction)
Settings | 278.15 K | 283.15 K | 288.15 K | 293.15 K | 298.15 K | 303.15 K | 308.15 K | 313.15 K | 318.15 K
in 1,4-dioxane | – | – | 0.0693 | 0.0799 | 0.0941 | 0.113 | 0.132 | 0.153 | 0.175
in DMF | 0.175 | 0.201 | 0.229 | 0.269 | 0.318 | 0.368 | 0.421 | 0.477 | 0.542
in DMSO | – | – | – | 0.376 | 0.426 | 0.481 | 0.54 | 0.608 | 0.68
in NMP | 0.197 | 0.221 | 0.255 | 0.299 | 0.352 | 0.405 | 0.46 | 0.523 | 0.589
in acetone | 0.104 | 0.118 | 0.138 | 0.162 | 0.191 | 0.226 | 0.264 | 0.303 | 0.346
in ethanol | 0.0162 | 0.0192 | 0.0232 | 0.0284 | 0.0328 | 0.0382 | 0.0448 | 0.05 | 0.0572
in ethyl acetate | 0.0106 | 0.0128 | 0.0155 | 0.019 | 0.0233 | 0.0281 | 0.0332 | 0.039 | 0.0448
in ethylene glycol | 0.00978 | 0.0106 | 0.0134 | 0.0163 | 0.0194 | 0.023 | 0.0269 | 0.0313 | 0.0367
in isobutanol | 0.0028 | 0.00315 | 0.0037 | 0.00452 | 0.00519 | 0.00613 | 0.00696 | 0.00821 | 0.00932
in isopropanol | 0.0067 | 0.00763 | 0.00886 | 0.0108 | 0.0127 | 0.0147 | 0.0166 | 0.0195 | 0.0221
in methanol | 0.0199 | 0.0227 | 0.0273 | 0.0325 | 0.0382 | 0.0452 | 0.0532 | 0.0619 | 0.0703
in n-butanol | 0.00149 | 0.00165 | 0.00202 | 0.00242 | 0.00284 | 0.00337 | 0.00378 | 0.00447 | 0.00507
in water | 0.000146 | 0.000173 | 0.000213 | 0.000269 | 0.000348 | 0.00045 | 0.000572 | 0.000721 | 0.000911
